{"source": "patent US8895733B2", "about": "(Novartis AG, priority 2010, dated 2014)", "data": [{"target": "T1, Nav 1.7 (Homo sapiens, UniProt Q15858)", "T1 construct": "expressed in transfected cells", "T1 sequence (Q15858 whole entry)": "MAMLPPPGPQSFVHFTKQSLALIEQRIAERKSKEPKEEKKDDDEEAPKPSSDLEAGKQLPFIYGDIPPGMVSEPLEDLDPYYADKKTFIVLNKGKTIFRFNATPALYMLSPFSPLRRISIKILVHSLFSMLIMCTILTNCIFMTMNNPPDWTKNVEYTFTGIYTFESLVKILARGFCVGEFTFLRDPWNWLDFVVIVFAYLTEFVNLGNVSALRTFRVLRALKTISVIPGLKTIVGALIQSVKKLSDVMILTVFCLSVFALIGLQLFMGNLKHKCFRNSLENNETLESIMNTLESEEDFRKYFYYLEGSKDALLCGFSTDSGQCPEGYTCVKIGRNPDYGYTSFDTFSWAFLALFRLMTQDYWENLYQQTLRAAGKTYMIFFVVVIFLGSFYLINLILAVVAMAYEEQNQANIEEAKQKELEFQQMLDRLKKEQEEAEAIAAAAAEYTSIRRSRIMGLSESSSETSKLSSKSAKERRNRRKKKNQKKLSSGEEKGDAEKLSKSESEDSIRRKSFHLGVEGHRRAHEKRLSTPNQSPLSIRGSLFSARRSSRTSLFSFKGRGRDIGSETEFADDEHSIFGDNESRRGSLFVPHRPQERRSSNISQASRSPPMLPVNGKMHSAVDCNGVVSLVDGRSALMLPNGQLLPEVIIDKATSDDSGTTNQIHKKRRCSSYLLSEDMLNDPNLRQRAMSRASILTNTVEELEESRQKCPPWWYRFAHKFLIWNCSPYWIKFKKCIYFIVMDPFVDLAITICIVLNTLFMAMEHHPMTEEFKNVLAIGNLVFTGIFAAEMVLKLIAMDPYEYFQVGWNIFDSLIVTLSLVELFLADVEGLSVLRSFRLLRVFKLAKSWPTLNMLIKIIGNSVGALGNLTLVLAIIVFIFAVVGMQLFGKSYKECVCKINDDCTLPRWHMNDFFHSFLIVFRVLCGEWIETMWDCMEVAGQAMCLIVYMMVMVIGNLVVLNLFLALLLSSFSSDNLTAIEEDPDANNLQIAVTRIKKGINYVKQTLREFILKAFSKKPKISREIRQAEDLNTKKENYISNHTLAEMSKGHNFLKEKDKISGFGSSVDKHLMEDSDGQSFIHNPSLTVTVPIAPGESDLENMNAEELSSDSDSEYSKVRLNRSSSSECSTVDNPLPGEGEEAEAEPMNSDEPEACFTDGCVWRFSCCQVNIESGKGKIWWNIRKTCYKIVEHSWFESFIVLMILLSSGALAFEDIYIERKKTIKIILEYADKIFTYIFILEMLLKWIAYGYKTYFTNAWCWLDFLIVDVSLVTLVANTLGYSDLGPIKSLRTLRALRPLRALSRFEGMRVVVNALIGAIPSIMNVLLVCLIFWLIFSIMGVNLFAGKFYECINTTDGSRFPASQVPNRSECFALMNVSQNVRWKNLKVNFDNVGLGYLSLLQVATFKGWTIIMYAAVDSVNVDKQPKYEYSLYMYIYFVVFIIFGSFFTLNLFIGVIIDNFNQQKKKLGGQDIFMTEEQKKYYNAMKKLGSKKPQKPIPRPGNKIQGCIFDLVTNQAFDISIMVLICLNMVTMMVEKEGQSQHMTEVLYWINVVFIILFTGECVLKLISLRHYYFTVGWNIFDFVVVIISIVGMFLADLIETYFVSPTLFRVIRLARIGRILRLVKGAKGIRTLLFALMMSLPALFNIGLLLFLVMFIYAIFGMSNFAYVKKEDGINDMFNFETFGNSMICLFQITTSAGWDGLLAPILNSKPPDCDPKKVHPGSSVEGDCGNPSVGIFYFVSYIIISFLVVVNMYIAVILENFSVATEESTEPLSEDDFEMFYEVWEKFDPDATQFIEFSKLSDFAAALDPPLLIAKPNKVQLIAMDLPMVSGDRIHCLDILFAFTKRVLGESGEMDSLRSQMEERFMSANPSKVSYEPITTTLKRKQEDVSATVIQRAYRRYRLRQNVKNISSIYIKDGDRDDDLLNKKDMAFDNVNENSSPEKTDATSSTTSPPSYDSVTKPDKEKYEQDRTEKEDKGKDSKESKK", "assay": "Whole-cell voltage clamp electrophysiology, automated patch clamp (marker c in Table of Examples)", "assay_type": "cell-based", "details": "marker c = Automated patch clamp data; read-out: Nav 1.7 activity", "outline": "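Human NaV1.7 currents were recorded by whole-cell automated patch clamp, on IonWorks Quattro or another automated platform, typically in perforated-patch configuration. The stimulus protocol was designed to probe block mainly of the inactivated state, with a typical sweep stepping from about −65 mV holding to −10 mV, then −100 mV.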", "units": {"IC50": "nM"}, "values": [{"smiles": "CN(c1ccccc1)c1nc(N)nc(-c2noc(-c3cccnc3C(=O)NCC3CC3)n2)n1", "note": "[Example 370, 3-(3-{4-amino-6-[methyl(phenyl)amino]-1,3,5-triazin-2-yl}-1,2,4-oxadiazol-5-yl)-N-(cyclopropylmethyl)pyridine-2-carboxamide]", "IC50": 3510}, {"smiles": "CN(c1ccccc1)c1nc(N)nc(-c2noc(-c3ncccc3C(=O)NC3CCC3)n2)n1", "note": "[Example 371, 2-(3-{4-amino-6-[methyl(phenyl)amino]-1,3,5-triazin-2-yl}-1,2,4-oxadiazol-5-yl)-N-cyclobutylpyridine-3-carboxamide]", "IC50": 7300}, {"smiles": "CN(c1ccccc1)c1nc(N)nc(-c2noc(-c3ccc(OCC(F)F)nc3)n2)n1", "note": "[Example 372, 6-{5-[6-(2,2-difluoroethoxy)pyridin-3-yl]-1,2,4-oxadiazol-3-yl}-2-N-methyl-2-N-phenyl-1,3,5-triazine-2,4-diamine]", "IC50": 155}, {"smiles": "CN(c1ccccc1)c1nc(N)nc(-c2noc(-c3cccnc3C(=O)NC3CC3)n2)n1", "note": "[Example 373, 3-(3-{4-amino-6-[methyl(phenyl)amino]-1,3,5-triazin-2-yl}-1,2,4-oxadiazol-5-yl)-N-cyclopropylpyridine-2-carboxamide]", "IC50": 4880}, {"smiles": "CN(c1ccccc1)c1nc(N)nc(-c2noc(-c3cccnc3C(=O)NC3CCC3)n2)n1", "note": "[Example 374, 3-(3-{4-amino-6-[methyl(phenyl)amino]-1,3,5-triazin-2-yl}-1,2,4-oxadiazol-5-yl)-N-cyclobutylpyridine-2-carboxamide]", "IC50": 2080}, {"smiles": "CN(c1ccccc1)c1nc(N)nc(-c2noc(-c3cccnc3C(=O)NCC(F)(F)F)n2)n1", "note": "[Example 375, 3-(3-{4-amino-6-[methyl(phenyl)amino]-1,3,5-triazin-2-yl}-1,2,4-oxadiazol-5-yl)-N-(2,2,2-trifluoroethyl)pyridine-2-carboxamide]", "IC50": 1510}, {"smiles": "CN(c1ccccc1)c1nc(N)nc(-c2noc(-c3ncccc3C(=O)NC3CC3)n2)n1", "note": "[Example 376, 2-(3-{4-amino-6-[methyl(phenyl)amino]-1,3,5-triazin-2-yl}-1,2,4-oxadiazol-5-yl)-N-cyclopropylpyridine-3-carboxamide]", "IC50": 9500}, {"smiles": "CN(c1ccccc1)c1nc(N)nc(-c2noc(-c3ncccc3C(=O)OCC3CC3)n2)n1", "note": "[Example 377]", "IC50": 232}, {"smiles": "CN(c1ccccc1)c1nc(N)nc(-c2noc(-c3cccnc3C(=O)OCC3CC3)n2)n1", "note": "[Example 378, cyclopropylmethyl 3-(3-{4-amino-6-[methyl(phenyl)amino]-1,3,5-triazin-2-yl}-1,2,4-oxadiazol-5-yl)pyridine-2-carboxylate]", "IC50": 399}, {"smiles": "CN(c1ccccc1)c1nc(N)nc(-c2noc(-c3ncccc3C(=O)OC3CCCC3)n2)n1", "note": "[Example 379, cyclopentyl 2-(3-{4-amino-6-[methyl(phenyl)amino]-1,3,5-triazin-2-yl}-1,2,4-oxadiazol-5-yl)pyridine-3-carboxylate]", "IC50": 386}, {"smiles": "CN(c1ccccc1)c1nc(N)nc(-c2noc(-c3cccnc3C(=O)OC3CCCC3)n2)n1", "note": "[Example 380, cyclopentyl 3-(3-{4-amino-6-[methyl(phenyl)amino]-1,3,5-triazin-2-yl}-1,2,4-oxadiazol-5-yl)pyridine-2-carboxylate]", "IC50": 83}, {"smiles": "CN(c1ccccc1)c1nc(N)nc(-c2noc(-c3ncccc3C(=O)NCC(F)(F)F)n2)n1", "note": "[Example 381, 2-(3-{4-amino-6-[methyl(phenyl)amino]-1,3,5-triazin-2-yl}-1,2,4-oxadiazol-5-yl)-N-(2,2,2-trifluoroethyl)pyridine-3-carboxamide]", "IC50": 4930}, {"smiles": "CN(c1ccccc1)c1nc(N)nc(-c2noc(C3CN(C(=O)OC(C)(C)C)C3)n2)n1", "note": "[Example 382, tert-butyl 3-(3-{4-amino-6-[methyl(phenyl]amino]-1,3,5-triazin-2-yl}-1,2,4-oxadiazol-5-yl)azetidine-1-carboxylate]", "IC50": 4810}, {"smiles": "CN(c1ccccc1)c1nc(N)nc(-c2noc(C3CN(Cc4ccccc4)C3)n2)n1", "note": "[Example 383, 6-[5-(1-benzylazetidin-3-yl)-1,2,4-oxadiazol-3-yl]-2-N-methyl-2-N-phenyl-1,3,5-triazine-2,4-diamine]", "IC50": 1540}]}]}
